From ChEMBL document CHEMBL3991601, “The target landscape of clinical kinase drugs” (Science, 2017)
pKd: −log10 of the molar value. The source made the active and inactive calls.

How the values were obtained:
[1] = target: Serine/threonine-protein kinase MRCK alpha (Homo sapiens, UniProt Q5VT25)
[2] = target: T1, Glycogen phosphorylase, brain form (Homo sapiens, UniProt P11216)
T1 sequence (P11216 whole entry): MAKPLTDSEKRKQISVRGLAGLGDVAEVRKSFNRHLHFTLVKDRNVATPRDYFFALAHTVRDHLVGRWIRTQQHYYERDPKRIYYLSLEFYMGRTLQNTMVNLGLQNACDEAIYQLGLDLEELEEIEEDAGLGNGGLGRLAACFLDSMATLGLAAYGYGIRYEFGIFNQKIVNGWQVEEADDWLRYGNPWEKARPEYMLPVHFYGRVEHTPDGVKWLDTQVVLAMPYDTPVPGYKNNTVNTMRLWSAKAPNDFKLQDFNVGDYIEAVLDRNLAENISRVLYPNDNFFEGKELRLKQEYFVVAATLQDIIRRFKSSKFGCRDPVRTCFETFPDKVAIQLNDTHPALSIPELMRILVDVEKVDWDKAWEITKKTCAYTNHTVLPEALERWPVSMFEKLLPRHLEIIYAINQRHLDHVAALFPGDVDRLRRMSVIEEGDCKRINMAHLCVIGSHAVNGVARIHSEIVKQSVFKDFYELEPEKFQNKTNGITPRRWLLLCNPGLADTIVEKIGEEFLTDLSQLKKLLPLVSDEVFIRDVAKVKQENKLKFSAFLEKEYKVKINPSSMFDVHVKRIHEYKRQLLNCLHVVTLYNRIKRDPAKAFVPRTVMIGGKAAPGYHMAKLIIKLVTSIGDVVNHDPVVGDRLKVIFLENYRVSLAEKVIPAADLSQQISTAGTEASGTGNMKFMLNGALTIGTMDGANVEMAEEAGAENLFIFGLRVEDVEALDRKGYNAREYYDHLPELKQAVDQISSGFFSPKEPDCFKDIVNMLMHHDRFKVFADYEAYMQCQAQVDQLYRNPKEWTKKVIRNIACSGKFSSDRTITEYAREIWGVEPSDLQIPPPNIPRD

[3] = target: MAP kinase-activated protein kinase 2 (Homo sapiens, UniProt P49137)
MAP kinase-activated protein kinase 2, sequence (P49137 whole entry): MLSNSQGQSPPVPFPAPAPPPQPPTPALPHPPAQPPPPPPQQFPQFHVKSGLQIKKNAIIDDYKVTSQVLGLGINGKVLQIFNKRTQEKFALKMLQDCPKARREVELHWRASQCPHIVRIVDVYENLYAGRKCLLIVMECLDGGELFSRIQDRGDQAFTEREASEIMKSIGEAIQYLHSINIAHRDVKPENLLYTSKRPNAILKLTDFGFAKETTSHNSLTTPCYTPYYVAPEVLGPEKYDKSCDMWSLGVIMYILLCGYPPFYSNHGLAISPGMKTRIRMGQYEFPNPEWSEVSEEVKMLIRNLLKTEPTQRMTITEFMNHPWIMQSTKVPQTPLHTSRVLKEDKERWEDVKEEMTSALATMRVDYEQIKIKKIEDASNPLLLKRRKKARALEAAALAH

[4] = target: Cyclin-dependent kinase 4 (Homo sapiens, UniProt P11802)
Cyclin-dependent kinase 4, sequence (P11802 whole entry): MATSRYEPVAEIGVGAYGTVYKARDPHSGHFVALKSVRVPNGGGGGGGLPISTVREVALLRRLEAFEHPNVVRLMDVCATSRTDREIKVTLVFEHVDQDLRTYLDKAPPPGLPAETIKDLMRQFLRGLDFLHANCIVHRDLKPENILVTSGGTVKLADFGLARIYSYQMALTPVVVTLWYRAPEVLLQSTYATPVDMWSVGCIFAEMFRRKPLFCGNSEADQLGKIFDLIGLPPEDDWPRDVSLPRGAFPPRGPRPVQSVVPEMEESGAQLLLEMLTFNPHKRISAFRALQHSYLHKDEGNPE

[5] = target: T2, Delta(24)-sterol reductase (Homo sapiens, UniProt Q15392)
T2 sequence (Q15392 whole entry): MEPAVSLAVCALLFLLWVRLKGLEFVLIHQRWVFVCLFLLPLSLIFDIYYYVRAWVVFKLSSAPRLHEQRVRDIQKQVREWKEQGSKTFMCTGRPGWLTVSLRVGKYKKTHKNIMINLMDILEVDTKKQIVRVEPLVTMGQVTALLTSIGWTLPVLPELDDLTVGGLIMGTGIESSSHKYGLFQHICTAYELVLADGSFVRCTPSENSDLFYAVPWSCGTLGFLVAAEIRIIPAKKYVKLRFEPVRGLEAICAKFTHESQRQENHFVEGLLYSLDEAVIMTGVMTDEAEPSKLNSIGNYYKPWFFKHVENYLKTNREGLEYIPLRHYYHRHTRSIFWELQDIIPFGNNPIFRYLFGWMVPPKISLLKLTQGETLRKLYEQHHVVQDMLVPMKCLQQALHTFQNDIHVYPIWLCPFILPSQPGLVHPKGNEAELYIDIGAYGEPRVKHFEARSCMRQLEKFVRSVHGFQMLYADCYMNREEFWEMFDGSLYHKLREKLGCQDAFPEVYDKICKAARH

[6] = target: T3, Long-chain-fatty-acid--CoA ligase 5 (Homo sapiens, UniProt Q9ULC5)
T3 sequence (Q9ULC5 whole entry): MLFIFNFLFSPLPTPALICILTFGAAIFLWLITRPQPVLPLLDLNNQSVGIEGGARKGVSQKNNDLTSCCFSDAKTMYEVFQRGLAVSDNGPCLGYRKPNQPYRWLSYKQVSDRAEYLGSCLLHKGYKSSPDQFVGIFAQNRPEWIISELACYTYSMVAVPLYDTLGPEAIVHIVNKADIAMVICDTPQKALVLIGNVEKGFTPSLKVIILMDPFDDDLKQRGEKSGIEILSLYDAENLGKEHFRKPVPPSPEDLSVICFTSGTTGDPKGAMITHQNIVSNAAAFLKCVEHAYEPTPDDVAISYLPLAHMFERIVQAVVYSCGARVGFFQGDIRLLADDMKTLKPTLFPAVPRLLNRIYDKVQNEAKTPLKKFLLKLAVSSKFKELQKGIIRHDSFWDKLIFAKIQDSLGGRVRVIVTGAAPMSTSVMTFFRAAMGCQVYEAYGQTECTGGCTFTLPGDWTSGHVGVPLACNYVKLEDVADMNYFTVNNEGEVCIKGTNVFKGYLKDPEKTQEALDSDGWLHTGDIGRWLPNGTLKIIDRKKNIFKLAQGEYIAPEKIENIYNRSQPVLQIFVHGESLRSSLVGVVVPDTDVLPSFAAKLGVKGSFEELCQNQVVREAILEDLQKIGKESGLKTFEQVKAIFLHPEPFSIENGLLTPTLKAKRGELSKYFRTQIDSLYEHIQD

[7] = target: Dual specificity protein kinase CLK1 (Homo sapiens, UniProt P49759)
Dual specificity protein kinase CLK1, sequence (P49759 whole entry): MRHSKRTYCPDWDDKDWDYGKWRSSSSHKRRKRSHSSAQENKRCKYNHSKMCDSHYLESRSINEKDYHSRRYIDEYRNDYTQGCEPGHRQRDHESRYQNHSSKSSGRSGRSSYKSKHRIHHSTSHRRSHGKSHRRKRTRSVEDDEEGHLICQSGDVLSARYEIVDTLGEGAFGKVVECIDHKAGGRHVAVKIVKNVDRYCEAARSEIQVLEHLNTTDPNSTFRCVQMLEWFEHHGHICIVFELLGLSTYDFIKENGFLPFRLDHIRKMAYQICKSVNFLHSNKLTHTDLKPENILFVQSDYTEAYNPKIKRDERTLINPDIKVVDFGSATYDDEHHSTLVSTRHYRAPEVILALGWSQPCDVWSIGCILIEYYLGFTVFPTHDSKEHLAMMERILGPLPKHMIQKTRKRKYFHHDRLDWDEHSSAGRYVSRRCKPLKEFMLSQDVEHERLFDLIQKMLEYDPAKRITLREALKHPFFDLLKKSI

[8] = target: Aurora kinase B (Homo sapiens, UniProt Q96GD4)
Aurora kinase B, sequence (Q96GD4 whole entry): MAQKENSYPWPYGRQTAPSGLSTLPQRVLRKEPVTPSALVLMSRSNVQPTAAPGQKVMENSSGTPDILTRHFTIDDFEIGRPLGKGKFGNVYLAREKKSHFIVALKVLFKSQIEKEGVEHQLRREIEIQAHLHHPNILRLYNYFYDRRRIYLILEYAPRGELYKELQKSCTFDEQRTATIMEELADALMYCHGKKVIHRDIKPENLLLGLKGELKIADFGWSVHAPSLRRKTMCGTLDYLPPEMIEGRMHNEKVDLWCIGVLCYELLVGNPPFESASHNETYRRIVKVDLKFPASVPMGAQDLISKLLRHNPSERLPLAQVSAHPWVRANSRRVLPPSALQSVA

[9] = target: Mitogen-activated protein kinase 7 (Homo sapiens, UniProt Q13164)
Mitogen-activated protein kinase 7, sequence (Q13164 whole entry): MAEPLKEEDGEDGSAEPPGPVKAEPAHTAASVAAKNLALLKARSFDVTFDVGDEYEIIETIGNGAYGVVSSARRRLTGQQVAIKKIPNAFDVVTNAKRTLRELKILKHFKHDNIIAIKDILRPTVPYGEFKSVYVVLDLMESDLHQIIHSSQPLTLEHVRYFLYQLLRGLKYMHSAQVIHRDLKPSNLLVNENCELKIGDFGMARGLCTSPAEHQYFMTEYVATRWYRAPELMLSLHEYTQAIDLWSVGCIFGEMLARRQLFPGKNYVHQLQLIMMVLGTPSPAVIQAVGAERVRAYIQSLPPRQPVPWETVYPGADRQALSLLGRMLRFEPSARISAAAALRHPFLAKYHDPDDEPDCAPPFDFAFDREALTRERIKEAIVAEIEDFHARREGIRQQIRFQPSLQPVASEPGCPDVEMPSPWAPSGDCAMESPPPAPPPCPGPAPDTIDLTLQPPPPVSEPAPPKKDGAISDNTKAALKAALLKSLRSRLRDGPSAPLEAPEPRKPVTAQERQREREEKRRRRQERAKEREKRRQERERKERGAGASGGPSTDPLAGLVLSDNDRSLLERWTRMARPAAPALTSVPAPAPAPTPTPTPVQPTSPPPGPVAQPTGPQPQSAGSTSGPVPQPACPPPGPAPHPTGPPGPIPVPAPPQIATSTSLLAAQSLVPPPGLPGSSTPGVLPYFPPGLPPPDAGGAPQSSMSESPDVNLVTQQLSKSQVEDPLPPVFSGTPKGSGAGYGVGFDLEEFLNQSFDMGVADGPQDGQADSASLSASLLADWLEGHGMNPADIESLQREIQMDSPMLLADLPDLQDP
Also: in the data inactive means no Kd found up to 30 µM.

Serine/threonine-protein kinase MRCK alpha, sequence (Q5VT25 whole entry): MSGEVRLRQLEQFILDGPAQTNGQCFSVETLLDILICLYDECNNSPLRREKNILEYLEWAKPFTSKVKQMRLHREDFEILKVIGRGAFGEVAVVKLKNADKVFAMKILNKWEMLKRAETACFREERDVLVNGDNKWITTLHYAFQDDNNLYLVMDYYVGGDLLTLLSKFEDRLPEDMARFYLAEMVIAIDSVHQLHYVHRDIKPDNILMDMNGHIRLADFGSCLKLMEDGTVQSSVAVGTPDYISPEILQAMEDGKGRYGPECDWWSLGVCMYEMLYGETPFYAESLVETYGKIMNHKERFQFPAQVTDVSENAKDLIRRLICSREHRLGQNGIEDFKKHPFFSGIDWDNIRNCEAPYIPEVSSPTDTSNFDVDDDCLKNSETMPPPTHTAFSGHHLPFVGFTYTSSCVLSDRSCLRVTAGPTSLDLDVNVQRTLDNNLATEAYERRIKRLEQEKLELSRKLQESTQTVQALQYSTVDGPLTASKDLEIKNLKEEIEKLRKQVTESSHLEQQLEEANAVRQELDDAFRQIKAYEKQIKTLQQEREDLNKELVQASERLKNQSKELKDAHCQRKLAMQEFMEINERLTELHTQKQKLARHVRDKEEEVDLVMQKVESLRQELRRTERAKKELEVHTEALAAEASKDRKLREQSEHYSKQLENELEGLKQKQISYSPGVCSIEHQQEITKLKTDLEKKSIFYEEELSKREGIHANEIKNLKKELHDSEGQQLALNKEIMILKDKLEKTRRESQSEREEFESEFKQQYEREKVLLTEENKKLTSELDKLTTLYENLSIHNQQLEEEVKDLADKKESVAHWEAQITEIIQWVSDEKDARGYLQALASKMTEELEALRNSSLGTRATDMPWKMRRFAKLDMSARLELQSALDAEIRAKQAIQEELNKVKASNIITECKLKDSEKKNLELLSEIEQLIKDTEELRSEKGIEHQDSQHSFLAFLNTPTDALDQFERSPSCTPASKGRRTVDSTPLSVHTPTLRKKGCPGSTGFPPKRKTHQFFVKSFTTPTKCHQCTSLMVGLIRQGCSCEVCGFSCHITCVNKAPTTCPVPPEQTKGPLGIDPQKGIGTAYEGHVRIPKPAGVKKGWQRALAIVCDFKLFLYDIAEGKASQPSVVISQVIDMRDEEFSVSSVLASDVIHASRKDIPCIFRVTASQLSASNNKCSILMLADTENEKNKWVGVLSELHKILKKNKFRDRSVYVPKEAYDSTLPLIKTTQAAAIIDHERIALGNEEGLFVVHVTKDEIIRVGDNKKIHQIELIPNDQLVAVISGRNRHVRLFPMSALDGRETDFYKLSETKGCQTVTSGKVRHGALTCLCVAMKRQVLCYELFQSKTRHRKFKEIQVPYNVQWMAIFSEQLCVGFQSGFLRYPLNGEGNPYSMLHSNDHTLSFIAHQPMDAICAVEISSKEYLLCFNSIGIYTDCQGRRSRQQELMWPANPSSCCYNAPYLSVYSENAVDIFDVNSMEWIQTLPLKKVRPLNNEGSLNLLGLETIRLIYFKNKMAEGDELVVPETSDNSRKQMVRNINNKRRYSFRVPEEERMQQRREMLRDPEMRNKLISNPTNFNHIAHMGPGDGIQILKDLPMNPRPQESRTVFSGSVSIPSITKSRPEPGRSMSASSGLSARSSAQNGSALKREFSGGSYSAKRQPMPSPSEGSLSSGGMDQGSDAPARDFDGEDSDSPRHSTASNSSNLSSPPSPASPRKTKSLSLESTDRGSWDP

SMILES: c1cc(OCCN2CCCCC2)cc(-c2n[nH]c3ccc(-c4nc[nH]n4)cc23)c1 [CC-401]
- Kd [1]: > 30 µM (inactive)
- Kd [2]: > 30 µM (inactive)
- Kd [3]: > 30 µM (inactive)
- Kd [4]: > 30 µM (inactive)
- Kd [5]: > 30 µM (inactive)
- Kd [6]: > 30 µM (inactive)
- Kd [7]: > 30 µM (inactive)
- Kd [8]: > 30 µM (inactive)
- Kd [9]: > 30 µM (inactive)

SMILES: CC1(COc2ccc3c(c2)ncn3-c2ccc3cccc(N4CCC(N)CC4)c3n2)COC1 [CRENOLANIB]
- Kd [1]: > 30 µM (inactive)
- Kd [2]: > 30 µM (inactive)
- Kd [3]: > 30 µM (inactive)
- Kd [4]: > 30 µM (inactive)
- Kd [5]: > 30 µM (inactive)
- Kd [6]: > 30 µM (inactive)
- Kd [7]: > 30 µM (inactive)
- Kd [8]: > 30 µM (inactive)
- Kd [9]: > 30 µM (inactive)

SMILES: COc1cc2ncnc(Nc3ccc(F)c(Cl)c3)c2cc1NC(=O)/C=C/CN1CCCCC1 [DACOMITINIB ANHYDROUS]
- Kd [1]: > 30 µM (inactive)
- Kd [2]: > 30 µM (inactive)
- Kd [3]: > 30 µM (inactive)
- Kd [4]: > 30 µM (inactive)
- Kd [5]: > 30 µM (inactive)
- Kd [6]: > 30 µM (inactive)
- Kd [7]: > 30 µM (inactive)
- Kd [8]: > 30 µM (inactive)
- Kd [9]: > 30 µM (inactive)

SMILES: CC[C@@](C)(Nc1ccnc(-c2c[nH]c3ncccc23)n1)C(=O)NCC(F)(F)F [DECERNOTINIB]
- Kd [1]: 0.561 µM (active)
- Kd [2]: > 30 µM (inactive)
- Kd [3]: > 30 µM (inactive)
- Kd [4]: > 30 µM (inactive)
- Kd [5]: > 30 µM (inactive)
- Kd [6]: > 30 µM (inactive)
- Kd [7]: > 30 µM (inactive)
- Kd [8]: > 30 µM (inactive)
- Kd [9]: > 30 µM (inactive)

SMILES: CNC(=O)c1ccc(Nc2ncc(C(F)(F)F)c(NCc3nccnc3N(C)S(C)(=O)=O)n2)cc1 [DEFACTINIB]
- Kd [1]: > 30 µM (inactive)
- Kd [2]: > 30 µM (inactive)
- Kd [3]: > 30 µM (inactive)
- Kd [4]: > 30 µM (inactive)
- Kd [5]: > 30 µM (inactive)
- Kd [6]: > 30 µM (inactive)
- Kd [7]: > 30 µM (inactive)
- Kd [8]: 1.46 µM (active)
- Kd [9]: > 30 µM (inactive)

SMILES: Cc1c(Cn2c(C)nc3c(C(=O)O)cc(N4CCOCC4)cc32)cccc1C(F)(F)F [GSK-2636771]
- Kd [1]: > 30 µM (inactive)
- Kd [2]: > 30 µM (inactive)
- Kd [3]: > 30 µM (inactive)
- Kd [4]: > 30 µM (inactive)
- Kd [5]: > 30 µM (inactive)
- Kd [6]: > 30 µM (inactive)
- Kd [7]: > 30 µM (inactive)
- Kd [8]: > 30 µM (inactive)
- Kd [9]: > 30 µM (inactive)

SMILES: C#Cc1cccc(Nc2ncnc3cc4c(cc23)OCCOCCOCCO4)c1 [ICOTINIB]
- Kd [1]: > 30 µM (inactive)
- Kd [2]: > 30 µM (inactive)
- Kd [3]: > 30 µM (inactive)
- Kd [4]: > 30 µM (inactive)
- Kd [5]: > 30 µM (inactive)
- Kd [6]: > 30 µM (inactive)
- Kd [7]: > 30 µM (inactive)
- Kd [8]: > 30 µM (inactive)
- Kd [9]: > 30 µM (inactive)

SMILES: COc1cccc2cc(-c3nc([C@H]4CC[C@H](C(=O)O)CC4)n4ncnc(N)c34)[nH]c12 [OSI-027]
- Kd [1]: > 30 µM (inactive)
- Kd [2]: > 30 µM (inactive)
- Kd [3]: > 30 µM (inactive)
- Kd [4]: > 30 µM (inactive)
- Kd [5]: > 30 µM (inactive)
- Kd [6]: > 30 µM (inactive)
- Kd [7]: > 30 µM (inactive)
- Kd [8]: > 30 µM (inactive)
- Kd [9]: > 30 µM (inactive)

SMILES: O=C(Nc1ccc(OC(F)(F)F)cc1)c1sccc1NCc1ccnc2ccccc12 [OSI-930]
- Kd [1]: > 30 µM (inactive)
- Kd [2]: > 30 µM (inactive)
- Kd [3]: > 30 µM (inactive)
- Kd [4]: > 30 µM (inactive)
- Kd [5]: > 30 µM (inactive)
- Kd [6]: > 30 µM (inactive)
- Kd [7]: > 30 µM (inactive)
- Kd [8]: > 30 µM (inactive)
- Kd [9]: > 30 µM (inactive)

SMILES: FC(F)(F)c1ccc(CNc2ccc(Cc3c[nH]c4ncc(Cl)cc34)cn2)cn1 [PEXIDARTINIB]
- Kd [1]: > 30 µM (inactive)
- Kd [2]: > 30 µM (inactive)
- Kd [3]: > 30 µM (inactive)
- Kd [4]: > 30 µM (inactive)
- Kd [5]: > 30 µM (inactive)
- Kd [6]: > 30 µM (inactive)
- Kd [7]: > 30 µM (inactive)
- Kd [8]: > 30 µM (inactive)
- Kd [9]: > 30 µM (inactive)

SMILES: O=C(NC[C@H](O)CO)c1ccncc1Nc1ccc(I)cc1F [PIMASERTIB]
- Kd [1]: > 30 µM (inactive)
- Kd [2]: > 30 µM (inactive)
- Kd [3]: > 30 µM (inactive)
- Kd [4]: > 30 µM (inactive)
- Kd [5]: > 30 µM (inactive)
- Kd [6]: > 30 µM (inactive)
- Kd [7]: > 30 µM (inactive)
- Kd [8]: > 30 µM (inactive)
- Kd [9]: > 30 µM (inactive)

SMILES: COCCN1CCN(Cc2ccc(-c3n[nH]c4c3C(=O)c3c(NC(=O)NN5CCOCC5)cccc3-4)cc2)CC1 [RGB-286638]
- Kd [1]: 1.09 µM (active)
- Kd [2]: > 30 µM (inactive)
- Kd [3]: > 30 µM (inactive)
- Kd [4]: > 30 µM (inactive)
- Kd [5]: > 30 µM (inactive)
- Kd [6]: > 30 µM (inactive)
- pKd [7]: 8.70
- Kd [8]: > 30 µM (inactive)
- Kd [9]: > 30 µM (inactive)

SMILES: CN1CCN(c2nc(C3=C(c4c[nH]c5ccccc45)C(=O)NC3=O)c3ccccc3n2)CC1 [SOTRASTAURIN]
- Kd [1]: > 30 µM (inactive)
- Kd [2]: > 30 µM (inactive)
- Kd [3]: > 30 µM (inactive)
- Kd [4]: > 30 µM (inactive)
- Kd [5]: > 30 µM (inactive)
- Kd [6]: > 30 µM (inactive)
- Kd [7]: > 30 µM (inactive)
- Kd [8]: > 30 µM (inactive)
- Kd [9]: > 30 µM (inactive)

SMILES: Cc1cc(C(=O)Nc2cc(Oc3ccc4nc(NC(=O)C5CC5)cn4n3)ccc2C)n(C)n1 [TAK-593]
- Kd [1]: > 30 µM (inactive)
- Kd [2]: > 30 µM (inactive)
- Kd [3]: > 30 µM (inactive)
- Kd [4]: > 30 µM (inactive)
- Kd [5]: > 30 µM (inactive)
- Kd [6]: > 30 µM (inactive)
- Kd [7]: > 30 µM (inactive)
- Kd [8]: > 30 µM (inactive)
- Kd [9]: > 30 µM (inactive)

SMILES: O[C@H]1CC[C@H](Nc2ncc3nc(Nc4c(F)cc(F)cc4F)n([C@H]4CCOC4)c3n2)CC1 [TANZISERTIB]
- Kd [1]: > 30 µM (inactive)
- Kd [2]: > 30 µM (inactive)
- Kd [3]: 0.934 µM (active)
- Kd [4]: > 30 µM (inactive)
- Kd [5]: > 30 µM (inactive)
- Kd [6]: > 30 µM (inactive)
- Kd [7]: > 30 µM (inactive)
- Kd [8]: > 30 µM (inactive)
- Kd [9]: > 30 µM (inactive)

SMILES: Cc1cc(-c2cc(OC(=O)c3ccccc3)ccc2Cl)cc2nnc(Nc3ccc(OCCN4CCCC4)cc3)nc12 [TG100-801]
- Kd [1]: > 30 µM (inactive)
- Kd [2]: > 30 µM (inactive)
- Kd [3]: > 30 µM (inactive)
- Kd [4]: > 30 µM (inactive)
- Kd [5]: > 30 µM (inactive)
- Kd [6]: > 30 µM (inactive)
- Kd [7]: > 30 µM (inactive)
- Kd [8]: > 30 µM (inactive)
- Kd [9]: > 30 µM (inactive)

SMILES: C[C@@H]1COC(Nc2ccc3ncnc(Nc4ccc(OCc5nccs5)c(Cl)c4)c3c2)=N1 [VARLITINIB]
- Kd [1]: > 30 µM (inactive)
- Kd [2]: > 30 µM (inactive)
- Kd [3]: > 30 µM (inactive)
- Kd [4]: > 30 µM (inactive)
- Kd [5]: > 30 µM (inactive)
- Kd [6]: > 30 µM (inactive)
- Kd [7]: > 30 µM (inactive)
- Kd [8]: > 30 µM (inactive)
- Kd [9]: > 30 µM (inactive)
